Reference: patent US6380134B1, “N-pyridyl herbicide compounds” (Syngenta Crop Protection, Inc., priority 1998, dated 2002)

Columns and labels:
Format in all cases: in vivo
Parameters in all cases: key: 1=complete damage; 9=no effect; Score figures of 1 to 4 (in particular 1 to 3) signify a good to very good herbicidal action
[1] = tested on: Ipomoea; assay: Herbicidal action before plant emergence (pre-emergence action); details: 2000 g a.i./ha sprayed immediately after sowing; evaluated after 3 weeks; nine-level key (1=complete damage, 9=no effect)
Excerpt: (§1) Monocotyledonous and dicotyledonous test plants are sown in standard soil in plastic pots. Immediately after sowing, the test substances are sprayed on as aqueous suspensions (prepared from a 25% strength wettable powder (Example F3, b) in accordance with WO 97/34485) or as emulsions (prepared from a 25% strength emulsion concentrate (Example F1, c) in accordance with WO 97/34485), corresponding to a dosage of 2 kg of a.i./ha (500 l of water/ha). The test plants are subsequently grown in the greenhouse under optimal conditions. After a test period of 3 weeks, the experiment is evaluated using a nine-level key (1=complete damage, 9=no effect). Score figures of 1 to 4 (in particular 1 to 3) signify a good to very good herbicidal action.
(§2) Test plants: Lolium, Setaria, Sinapis, Solanum, Stellaria, Ipomea.

[2] = tested on: Lolium; assay: as above; details: 2000 g a.i./ha sprayed immediately after sowing; evaluated after 3 weeks; nine-level key (1=complete damage, 9=no effect)
Excerpt: as §1, §2

[3] = tested on: Setaria; assay: as above; details: 2000 g a.i./ha sprayed immediately after sowing; evaluated after 3 weeks; nine-level key (1=complete damage, 9=no effect)
Excerpt: as §1, §2

[4] = tested on: Sinapis; assay: as above; details: 2000 g a.i./ha sprayed immediately after sowing; evaluated after 3 weeks; nine-level key (1=complete damage, 9=no effect)
Excerpt: as §1, §2

[5] = tested on: Solanum; assay: as above; details: 2000 g a.i./ha sprayed immediately after sowing; evaluated after 3 weeks; nine-level key (1=complete damage, 9=no effect)
Excerpt: as §1, §2

[6] = tested on: Stellaria; assay: as above; details: 2000 g a.i./ha sprayed immediately after sowing; evaluated after 3 weeks; nine-level key (1=complete damage, 9=no effect)
Excerpt: as §1, §2

[7] = tested on: Ipomoea; assay: Post-emergence herbicidal action; details: dose 2000 g a.i./ha; sprayed at 4- to 6-leaf stage; evaluated after approximately 18 days; nine-level key (1=complete damage, 9=no effect)
Method: (§3) Monocotyledonous and dicotyledonous test plants are grown in the greenhouse in plastic pots containing standard soil and, in the 4- to 6-leaf stage, sprayed with an aqueous suspension of the test substances of the formula I, prepared from a 25% strength wettable powder (Example F3, b) in accordance with WO 97/34485) or with an emulsion of the test substances of the formula I, prepared from a 25% strength emulsion concentrate (Example F1, c) in accordance with WO 97/34485), corresponding to a dosage of 2 kg/ a.i./ha (500 l of water/ha). The test plants are subsequently grown on in the greenhouse under optimal conditions. After a test period of approximately 18 days, the experiment is evaluated using a nine-level key (1=complete damage, 9=no effect). Score figures of 1 to 4 (in particular 1 to 3) signify a good to very good herbicidal action.
as §2

[8] = tested on: Lolium; assay: Post-emergence herbicidal action; details: dose 2000 g a.i./ha; sprayed at 4- to 6-leaf stage; evaluated after approximately 18 days; nine-level key (1=complete damage, 9=no effect)
Method: as §3, §2

[9] = tested on: Setaria; assay: Post-emergence herbicidal action; details: dose 2000 g a.i./ha; sprayed at 4- to 6-leaf stage; evaluated after approximately 18 days; nine-level key (1=complete damage, 9=no effect)
Method: as §3, §2

[10] = tested on: Sinapis; assay: Post-emergence herbicidal action; details: dose 2000 g a.i./ha; sprayed at 4- to 6-leaf stage; evaluated after approximately 18 days; nine-level key (1=complete damage, 9=no effect)
Method: as §3, §2

[11] = tested on: Solanum; assay: Post-emergence herbicidal action; details: dose 2000 g a.i./ha; sprayed at 4- to 6-leaf stage; evaluated after approximately 18 days; nine-level key (1=complete damage, 9=no effect)
Method: as §3, §2

[12] = tested on: Stellaria; assay: Post-emergence herbicidal action; details: dose 2000 g a.i./ha; sprayed at 4- to 6-leaf stage; evaluated after approximately 18 days; nine-level key (1=complete damage, 9=no effect)
Method: as §3, §2

Row | SMILES | Pre-emergence action, score, test plant Ipomoea [1] | Pre-emergence action, score, test plant Lolium [2] | Pre-emergence action, score, test plant Setaria [3] | Pre-emergence action, score, test plant Sinapis [4] | Pre-emergence action, score, test plant Solanum [5] | Pre-emergence action, score, test plant Stellaria [6] | Post-emergence action, score, Ipomoea [7] | Post-emergence action, score, Lolium [8] | Post-emergence action, score, Setaria [9] | Post-emergence action, score, Sinapis [10] | Post-emergence action, score, Solanum [11] | Post-emergence action, score, Stellaria [12]
1 | COc1nc(-n2c(=O)cc(C(F)(F)F)n(C)c2=O)c(F)cc1Cl [1.016] | 1 | 1 | 1 | 1 | 1 | 1 | 1 | 1 | 1 | 1 | 1 | 1
2 | C=CCOc1nc(-n2c(=O)cc(C(F)(F)F)n(C)c2=O)c(F)cc1Cl [1.020] | 1 | 1 | 1 | 1 | 1 | 1 | 1 | 1 | 1 | 1 | 1 | 1
3 | Cn1c(C(F)(F)F)cc(=O)n(-c2nc(Cl)c(Cl)cc2F)c1=O [1.396] | 1 | 1 | 1 | 1 | 1 | 1 | 1 | 3 | 3 | 1 | 1 | 3
4 | COC(=O)C(Oc1cc(Cl)c(-n2c(=O)cc(C(F)(F)F)n(C)c2=O)nc1Cl)c1ccccc1 (centres unmarked) [500.144] | – | – | 2 | – | 1 | – | – | – | – | – | – | –
5 | Cn1c(C(F)(F)F)cc(=O)n(-c2nc(OCC(F)(F)F)c(Cl)cc2F)c1=O [1.365] | 1 | 1 | 1 | 1 | 1 | 1 | 1 | 1 | 1 | 1 | 1 | 1
6 | Cn1c(C(F)(F)F)cc(=O)n(-c2nc(OCc3ccccc3)c(Cl)cc2F)c1=O [1.026] | 1 | 1 | 1 | 1 | 1 | 3 | 1 | 3 | 3 | 1 | 1 | 3
7 | CCCOc1nc(-n2c(=O)cc(C(F)(F)F)n(C)c2=O)c(F)cc1Cl [1.367] | 1 | 1 | 1 | 1 | 1 | 1 | 1 | 1 | 1 | 1 | 1 | 1
8 | Cn1c(C(F)(F)F)cc(=O)n(-c2nc(OCC(N)=O)c(Cl)cc2F)c1=O [1.366] | 1 | 3 | 1 | 1 | 1 | 3 | 1 | 1 | 1 | 1 | 1 | 1
9 | Cn1c(C(F)(F)F)cc(=O)n(-c2nc(OCC#N)c(Cl)cc2F)c1=O [1.363] | 7 | 3 | 1 | 2 | 1 | 1 | 1 | 1 | 1 | 1 | 1 | 1
10 | C=CCOC(=O)C(C)(C)Oc1nc(-n2c(=O)cc(C(F)(F)F)n(C)c2=O)c(F)cc1Cl [1.402] | 4 | 1 | 1 | 1 | 1 | 1 | 1 | 1 | 1 | 1 | 1 | 1
11 | C=CCOc1cc(F)c(-n2c(=O)cc(C(F)(F)F)n(C)c2=O)nc1Cl [500.007] | – | – | 4 | – | 1 | – | – | – | – | – | – | –
12 | Cn1c(C(F)(F)F)cc(=O)n(-c2nc(OCOCc3ccccc3)c(Cl)cc2F)c1=O [1.025] | 1 | 3 | 1 | 1 | 1 | 3 | 1 | 1 | 3 | 1 | 1 | 1
13 | COC(=O)C(C)Oc1cc(F)c(-n2c(=O)cc(C(F)(F)F)n(C)c2=O)nc1Cl (centres unmarked) [500.029] | – | – | 4 | – | 1 | – | 1 | – | – | 1 | 1 | –
14 | CCOc1cc(F)c(-n2c(=O)cc(C(F)(F)F)n(C)c2=O)nc1Cl [500.004] | – | – | – | – | – | – | 3 | – | – | 2 | 1 | –
15 | CSC(=O)COc1cc(F)c(-n2c(=O)cc(C(F)(F)F)n(C)c2=O)nc1Cl [500.033] | – | – | 2 | – | 1 | – | 1 | – | – | 1 | 1 | –
